Values joined by “and” are separate entries in the source; they are usually repeats but may differ in a detail not shown here. Equal entries are not always repeated.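 1) Cells in 96-well plates. 2) Compound, 48 h, 5 concentrations. 3) Linear interpolation between surrounding doses. 4) Unreached endpoint = highest concentration. GI50: concentration for 50% inhibition of growth. TGI denotes the concentration required for complete inhibition of growth.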
Tests used:
Experiment in all cases: inhibition of tumour cell growth, NCI panel, 48 h
HCT-116 colon = tested on: HCT-116 colon
IGROV1 ovarian = tested on: IGROV1 ovarian
KM20L2 colon = tested on: KM20L2 colon
M14 melanoma = tested on: M14 melanoma
MOLT-4 leukemia = tested on: MOLT-4 leukemia
NCI-H226 lung = tested on: NCI-H226 lung
SR leukemia = tested on: SR leukemia
SW-620 colon = tested on: SW-620 colon
UACC-62 melanoma = tested on: UACC-62 melanoma
HCT-15 colon = tested on: HCT-15 colon

Structure (SMILES)	TGI (HCT-116 colon) [µM]	TGI (IGROV1 ovarian) [µM]	TGI (KM20L2 colon) [µM]	TGI (M14 melanoma) [µM]	TGI (MOLT-4 leukemia) [µM]	TGI (NCI-H226 lung) [µM]	TGI (SR leukemia) [µM]	TGI (SW-620 colon) [µM]	TGI (UACC-62 melanoma) [µM]	TGI (HCT-15 colon) [µM]	GI50 (HCT-116 colon)	GI50 (HCT-15 colon) [µM]	GI50 (M14 melanoma) [µM]	GI50 (MOLT-4 leukemia)	GI50 (NCI-H226 lung) [µM]	GI50 (UACC-62 melanoma) [µM]
O=S1CSCS1 (stereo not drawn)	> 100	> 100	> 100	> 100	> 100	> 100	> 100	> 100	> 100	–	–	–	–	–	–	–
CC(=O)OCCOCNC(=S)N/N=C/c1ccc2ccccc2n1	> 100	> 100	79.8	> 100	> 100	> 100	> 100	> 100	47.6	> 100	–	–	–	–	–	–
CC1(C)C(c2ccccc2)C12CCC1(C2=O)C(c2ccccc2)C1(C)C (stereo not drawn)	33.6	> 100	52.9	75.5	37.2	36.3	–	46.8	> 100	51.8	–	–	–	–	–	–
COc1cc(=O)oc(/C=C/C=O)c1C	17.4	> 100	30.8	33.8	77.3	90.9	7.6	37.6	32.8	–	–	–	–	–	–	–
Cc1ccc(NC(=O)CC/C(CC(=O)C(C)(C)C)=N/NC(=O)C(N)=O)cc1C	> 100	> 100	> 100	> 100	> 100	> 100	> 100	> 100	> 100	> 100	–	–	–	–	–	–
COC1C(O)C(C)OC(OC2C(Oc3cccc4c(O)c5c(=O)oc6ccc(C)c7c(=O)oc(c34)c5c67)OC(C)C3O[C@H](c4ccccc4)OC32)C1O (stereo partly drawn)	3.64	3.42	2.98	6.48	11.5	0.836	–	14.3	1.9	6.65	0.0528 µM and 0.0292 µM	0.516	0.514	0.0334 µM and 0.0236 µM	0.186	0.304
CC1(C)CCC[C@@]2(C)C1C[C@H](O)[C@@]1(C)O[C@@](C)([C@H](O)CO)CCC21 (stereo partly drawn)	> 100	70.6	> 100	> 100	62	> 100	–	> 100	96.1	> 100	–	–	–	–	–	–
Cc1cc(=O)n(-c2ccccc2)c(=O)o1	> 100	> 100	> 100	> 100	> 100	> 100	> 100	> 100	> 100	> 100	–	–	–	–	–	–
CCC1=C(C)/C(=C/c2[nH]c(C(Br)Br)c(CC)c2C)N=C1C(Br)Br	> 100	> 100	> 100	> 100	27.4	90.1	32.6	> 100	> 100	> 100	–	–	–	–	–	–
N#CNC(N)=NCCO	> 100	> 100	> 100	> 100	> 100	> 100	86.2	35.9	> 100	> 100	–	–	–	–	–	–
NC(N)=NS(=O)(=O)c1ccc(Nc2c3ccccc3nc3c(C(=O)N4CCN(CCO)CC4)cccc23)cc1	> 100	> 100	> 100	> 100	> 100	> 100	> 100	> 100	> 100	> 100	–	–	–	–	–	–
CCOC(=O)c1cc(/C=C/C(C)=C/C(=O)OC)oc1-c1ccccc1	> 100	> 100	> 100	> 100	> 100	> 100	–	> 100	> 100	> 100	–	–	–	–	–	–
COC(=O)[C@H]1[C@H]2C[C@@H]3c4[nH]c5cc(OC)ccc5c4CCN3C[C@H]2C[C@@H](OC(=O)c2cc(OC)c(OC)c(OC)c2)[C@@H]1OC	31.5	47.1	35.3	30.3	50.6	66.7	34	> 100	36.9	87.8	–	–	–	–	–	–
O=C(Cc1nc2ccccc2c(=O)n1-c1c(Cl)cccc1Cl)c1ccncc1	39.7	49.7	85.9	> 100	42.2	> 10	39.8	> 100	56.6	> 100	–	–	–	–	–	–
[N-]=[N+]=Nc1ccc(CCN2CCN(c3cccc(C(F)(F)F)c3)CC2)cc1I	> 100	–	> 100	> 100	> 100	> 100	> 100	> 100	> 100	> 100	–	–	–	–	–	–
CC(C)(C)N/N=C(\Cc1occc(=O)c1O)C(=O)Nc1ccc([N+](=O)[O-])cc1[N+](=O)[O-]	> 100	> 100	> 100	> 100	> 100	> 100	> 100	> 100	> 100	> 100	–	–	–	–	–	–
Cc1c(C(=O)CC(=O)C(=O)Nc2c(C(C)C)cccc2C(C)C)[n+](=O)c2ccccc2n1[O-]	9.1	11.4	15.9	10.8	8.2	54.5	–	13.2	22.3	8.43	–	–	–	–	–	–
